# Key:
# [1] = system: SUP-M2 cells; test: Cell proliferation assay, SUP-M2 cells (CCK-8); type: cell-based; conditions: 72 h exposure, Cell Counting Kit-8 assay
# Experimental: (§1) NCI-H3122 or SUP-M2 Cells were plated into 96-well plates (3000-8000/well) in complete medium. After incubation overnight, cells were exposed to various concentrations of compound for further 72 h. Cell proliferation was evaluated by SRB assay (for NCI-H3122 cell) or Cell Counting Kit-8 assay (CCK-8, DOJINDO Molecular Technologies, Inc.) (for SUP-M2 cell). ICso values were calculated by concentration-response curve fitting using a SoftMax pro-based four-parameter method. Each IC50 value was expressed as mean±SD from three separate experiments.
# [2] = system: NCI-H3122 cells; test: Cell proliferation assay, NCI-H3122 cells (SRB); type: cell-based; conditions: Homo sapiens, 72 h exposure
# Experimental: as §1
Structure (SMILES),IC50 [2],IC50 [1]
"Cc1cc(Nc2ncnc(Nc3ccccc3S(=O)(=O)C(C)C)n2)c2c(c1C1CCNCC1)C[C@@H](C)O2 [Example 1, (R)—N^2-(2,5-dimethyl-4-(piperidin-4-yl)-2,3-dihydrobenzofuran-7-yl)-N^4-(2-(isopropylsulfonyl)phenyl)-1,3,5-triazine-2,4-diamine]",52.6 nM,99.3 nM
"Cc1cc(Nc2ncnc(Nc3ccccc3S(=O)(=O)C(C)C)n2)c2c(c1C1CCN(C)CC1)C[C@@H](C)O2 [Example 2, (R)—N^2-(2,5-dimethyl-4-(1-methylpiperidin-4-yl)-2,3-dihydrobenzofuran-7-yl)-N^4-(2-(isopropyl-sulfonyl)phenyl)-1,3,5-triazine-2,4-diamine]",20.8 nM,54.4 nM
"CC(=O)N1CCC(c2c(C)cc(Nc3ncnc(Nc4ccccc4S(=O)(=O)C(C)C)n3)c3c2C[C@@H](C)O3)CC1 [Example 3, (R)-1-(4-(7-((4-((2-(isopropylsulfonyl)phenyl)amino)-1,3,5-triazin-2-yl)amino)-2,5-dimethyl-2,3-dihydrobenzofuran-4-yl)piperidin-1-yl)ethan-1-one]",14.4 nM,50.4 nM
"Cc1cc(Nc2ncnc(Nc3ccccc3S(=O)(=O)C(C)C)n2)c2c(c1C1CCN(S(C)(=O)=O)CC1)C[C@@H](C)O2 [Example 4, (R)—N^2-(2,5-dimethyl-4-(1-(methylsulfonyl)piperidin-4-yl)-2,3-dihydrobenzofuran-7-yl)-N^4-(2-(isopropylsulfonyl)phenyl)-1,3,5-triazine-2,4-diamine]",,111 to 333 nM
"CCOC(=O)CN1CCC(c2c(C)cc(Nc3ncnc(Nc4ccccc4S(=O)(=O)C(C)C)n3)c3c2C[C@@H](C)O3)CC1 [Example 6, Ethyl (R)-2-(4-(7-((4-((2-(isopropylsulfonyl)phenyl)amino)-1,3,5-triazin-2-yl)amino)-2,5-dimethyl-2,3-dihydrobenzofuran-4-yl)piperidin-1-yl)acetate]",,111 to 333 nM
"Cc1cc(Nc2ncnc(Nc3ccccc3S(=O)(=O)C(C)C)n2)c2c(c1C1CCN(CC(=O)N(C)C)CC1)C[C@@H](C)O2 [Example 7, (R)-2-(4-(7-((4-((2-(isopropylsulfonyl)phenyl)amino)-1,3,5-triazin-2-yl)amino)-2,5-dimethyl-2,3-dihydrobenzofuran-4-yl)piperidin-1-yl)-N,N-dimethylacetamide]",,111 to 333 nM
"Cc1cc(Nc2ncnc(Nc3ccccc3S(=O)(=O)C(C)C)n2)c2c(c1C1CCN(CCS(C)(=O)=O)CC1)C[C@@H](C)O2 [Example 8, (R)—N^2-(2,5-dimethyl-4-(1-(2-(methylsulfonyl)ethyl)piperidin-4-yl)-2,3-dihydrobenzofuran-7-yl)-N^4-(2-(isopropylsulfonyl)phenyl)-1,3,5-triazine-2,4-diamine]",,111 to 333 nM

# Continued, in another order:
IC50 [2],Structure (SMILES),IC50 [1]
57.7 nM,"Cc1cc(Nc2ncnc(Nc3ccccc3S(=O)(=O)C(C)C)n2)c2c(c1C1CCN(CCO)CC1)C[C@@H](C)O2 [Example 5, (R)-2-(4-(7-((4-((2-(isopropylsulfonyl)phenyl)amino)-1,3,5-triazin-2-yl)amino)-2,5-dimethyl-2,3-dihydrobenzofuran-4-yl)piperidin-1-yl)ethan-1-ol]",70 nM
15.9 nM,"Cc1cc(Nc2ncnc(Nc3ccccc3S(=O)(=O)C(C)C)n2)c2c(c1C1CCN(C(=O)CO)CC1)C[C@@H](C)O2 [Example 9, (R)-2-hydroxy-1-(4-(7-((4-((2-(isopropylsulfonyl)phenyl)amino)-1,3,5-triazin-2-yl)amino)-2,5-dimethyl-2,3-dihydrobenzofuran-4-yl)piperidin-1-yl)ethan-1-one]",33.7 nM
134 nM,"Cc1cc(Nc2ncnc(Nc3ccccc3S(=O)(=O)C(C)C)n2)c2c(c1C1CCN(C(=O)CN)CC1)C[C@@H](C)O2 [Example 10, (R)-2-amino-1-(4-(7-((4-((2-(isopropylsulfonyl)phenyl)amino)-1,3,5-triazin-2-yl)amino)-2,5-dimethyl-2,3-dihydrobenzofuran-4-yl)piperidin-1-yl)ethan-1-one]",79.6 nM
25.7 nM,"Cc1cc(Nc2ncnc(Nc3ccccc3S(=O)(=O)C(C)C)n2)c2c(c1C1CCN(C(=O)[C@H](C)N)CC1)C[C@@H](C)O2 [Example 11, (S)-2-amino-1-(4-((R)-7-((4-((2-(isopropylsulfonyl)phenyl)amino)-1,3,5-triazin-2-yl)amino)-2,5-dimethyl-2,3-dihydrobenzofuran-4-yl)piperidin-1-yl)propan-1-one]",67.1 nM

# Reference: US20160145244A1, “CERTAIN PROTEIN KINASE INHIBITORS” (FOCHON PHARMA, INC., priority 2014, published 2016)
